Laboratory results from patent US10125134B2 (Mirati Therapeutics, Inc., priority 2016, dated 2018).
pIC50: −log10 of the molar value. Where two headings read alike, the source gives them in different places.

Assays:
[1] = tested on: NCI-H358 cells (express KRas G12C), Phospho-ERK; test: Cellular inhibition of KRas G12C: Phospho-ERK in NCI-H358 cells; format: cell-based; conditions: pERK(Thr202/Tyr204) normalized with GAPDH, NCI-H358 cells, 3 hours, read-out: IC50
Method in brief: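 IC50 derived by 4-parameter fit of GAPDH-normalized pERK(Thr202/Tyr204) signal, as percent of DMSO control. Signal came from in-cell immunodetection with infrared secondaries after 3 h compound exposure of KRas G12C NCI-H358 cells at 0.5% DMSO.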

[2] = biological target: KRas G12C (Homo sapiens, UniProt P01116, C118S/C51S/C80L/G12C); test: KRas G12C Modification Assay (LCMS detection of covalent adduct); format: binding; conditions: normalized percent of control; tested at 5 μM concentration for 3 hours
Method in brief: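 Cys-light KRas G12C mutant protein incubated with compound in K-Ras assay buffer, reactions quenched at set time points with 25 mM acetic acid and analysed by intact-protein LC/MS on a C-3 column. Deconvoluted mass heights expressed as percent of control (POC) relative to compound-free protein.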

Question: `C=CC(=O)N1CCN(c2nc(OC[C@@H]3C[C@@H](OC)CN3C)nc3c2CCN(c2cccc4ccccc24)C3)CC1CC#N` (stereo partly drawn) [Example 381, 2-(1-acryloyl-4-(2-(((2S,4R)-4-methoxy-1-methylpyrrolidin-2-yl)methoxy)-7-(naphthalen-1-yl)-5,6,7,8-tetrahydropyrido[3,4-d]pyrimidin-4-yl)piperazin-2-yl)acetonitrile] was tested. Which pIC50 [1] did it give?
Answer: 6.00 to 10.00

Question: What about the POC [2] of the same molecule?
Answer: C (“C”>50% POC)

Question: How did the pIC50 ([1]; Homo sapiens, NCI-H358, 3 h) turn out when `C=CC(=O)N1CCN(c2nc(OCCCN3CCOCC3)nc3c2CCN(c2cccc4cccc(C)c24)C3)C[C@@H]1CC#N` [Example 370, (S)-2-(1-acryloyl-4-(7-(8-methylnaphthalen-1-yl)-2-(3-morpholinopropoxy)-5,6,7,8-tetrahydropyrido[3,4-d]pyrimidin-4-yl)piperazin-2-yl)acetonitrile] was run?
Answer: 6.00 to 10.00

Question: What about the POC [2] of the same molecule?
Answer: C (“C”>50% POC)

Question: `C=CC(=O)N1CCN(c2nc(OC[C@@H]3CCCN3C)nc3c2CCN(c2cc(OC)cc4ccccc24)C3)C[C@@H]1CC#N` [Example 314, 2-[(2S)-4-[7-(3-methoxy-1-naphthyl)-2-[[(2S)-1-methylpyrrolidin-2-yl]methoxy]-6,8-dihydro-5H-pyrido[3,4-d]pyrimidin-4-yl]-1-prop-2-enoyl-piperazin-2-yl]acetonitrile] was tested. Which pIC50 ([1]; Homo sapiens, NCI-H358, 3 h) did it give?
Answer: 6.00 to 10.00

Question: And the POC [2]?
Answer: C (“C”>50% POC)

Question: How did the pIC50 ([1]; Homo sapiens, NCI-H358, 3 h) turn out when `C=CC(=O)N1CCN(c2nc(OC[C@@H]3CCCN3C)nc3c2CCN(c2c(O)cccc2F)C3)[C@@H](C)C1` [Example 321, 1-[(3S)-4-[7-(2-fluoro-6-hydroxy-phenyl)-2-[[(2S)-1-methylpyrrolidin-2-yl]methoxy]-6,8-dihydro-5H-pyrido[3,4-d]pyrimidin-4-yl]-3-methyl-piperazin-1-yl]prop-2-en-1-one] was run?
Answer: < 6.00

Question: What about the POC [2] of the same molecule?
Answer: B (“B”>25% POC−≤50% POC)
